Reference: PMC12018048, “Intranasal kisspeptin administration rapidly stimulates gonadotropin release in humans” (eBioMedicine, 2025)

Tests used:
[1] = Stability of kisspeptin-54 solutions for nasal delivery; assay type: physicochemical; details: 2 M HCL or phosphate buffer at 60 °C for 72 h, HPLC-UV
LH = details: mice, intraperitoneal route, 1 nM; cited from earlier work
[2] = test system: serum LH, FSH, oestradiol and progesterone; assay: Intranasal kisspeptin-54, reproductive hormone profiles in healthy women; assay type: in vivo, human; details: N = 12
Method: (§1) This was a randomised, double-blinded, crossover, placebo-controlled clinical study (Fig. 1, Fig. 2, Fig. 3a). Participants were admitted to the Clinical Research Unit (Imperial College Healthcare NHS Trust) and completed five (in healthy men) or two (in healthy women and patients with HA) study visits. […] Study visits in healthy women were conducted in the follicular phase of the menstrual cycle (i.e., days 2–10 inclusive) to control for changes in reproductive hormones over the course of the cycle and were conducted across two different menstrual cycles to allow washout.
(§2) All studies commenced at 08:00 to control for circadian hormonal changes. Participants were instructed to abstain from alcohol, caffeine, and sexual activities from 22:00 preceding each study visit. On arrival, an intravenous cannula was inserted into one antecubital fossa, and blood was sampled at timepoints −30, −15, and 0 min, before intranasal administration of kisspeptin-54 or 0.9% saline (placebo). Following participant education (described below), healthy men self-administered the following 5 interventions under supervision in random order via the intranasal route: 3.2, 6.4, 12.8, and 25.6 nmol/kg of kisspeptin-54, or placebo. Healthy women and patients with HA attended for the same protocol comparing 12.8 nmol/kg of kisspeptin-54 and placebo in random order. After administration of kisspeptin-54 or placebo at timepoint 0 min, serum levels of LH, FSH, and testosterone (in men), or oestradiol and progesterone (in women) were measured every 15 min for 4 h. Heart rate, blood pressure, and the presence of adverse symptoms were recorded every 15 min.
(§3) Kisspeptin-54 or placebo was self-administered using nasal spray devices that delivered a single volume of 100 μL per actuation (SP270+ pump, 3959 actuator, 5 mL SGD U-Save glass bottles provided by Nemera, La Verpillière, France). The kisspeptin-54 nasal spray solution formulations were prepared by reconstituting kisspeptin-54 powder stored in sterile vials on the morning of each study visit to produce a solution containing the target dose according to body weight in 400 μL.
(§4) Participants were familiarised with the procedure of intranasal application and were provided with written administration instructions ahead of each study visit, as described in.[38] In addition, participants received a 5-min training session using a dummy nasal spray device before starting the study to ensure good technique, which all participants easily understood. Under instruction and supervision from the clinical team, participants primed the nasal sprays then self-administered a total of four sprays of kisspeptin-54 or placebo per visit (i.e., 4 × 100 μL), alternating between nostrils and leaving 60 s between sprays, to allow satisfactory dissipation and avoid solution running out of the nostrils. Nasal sprays containing kisspeptin or placebo were identical in appearance, volume, and administration technique.
(§5) Blood samples were collected to measure serum reproductive hormone levels at the timepoints depicted in Fig. 1, Fig. 2, Fig. 3a. Serum samples were stored at −20 °C until analysis. Serum LH, FSH, testosterone (in men), and oestradiol and progesterone (in women) were measured using automated chemiluminescent immunoassays (Abbott Diagnostics, Maidenhead, UK: LH catalogue # 2P40-25, FSH catalogue # 7K75-25, testosterone catalogue # 07K7320, oestradiol catalogue # 7K72-25, progesterone catalogue # 7K77-25). Reference ranges: LH in international units per litre (IU/L), 2–12 (men), 2–10 (follicular), 20–60 (mid-cycle), 4–14 (luteal); FSH in IU/L, 1.7–8 (men), 1.5–8.0 (follicular and luteal), 10–50 (mid-cycle); in men: testosterone in nanomoles per litre (nmol/L), 10–30; and in women: oestradiol in picomoles per litre (pmol/L), <300 (early follicular), 400–1500 (mid-cycle), 200–1000 (luteal) and progesterone in nmol/L, <5.0 (follicular), 3.5–67 (luteal). […]

[3] = Kisspeptin-54 powder particle size and shape analysis (Morphologi 4); assay type: physicochemical
Method: Particle size and shape analysis of the kisspeptin-54 powder was performed using a Morphologi 4 (Malvern Instruments, Worcestershire, UK). Particles were readily dispersed using the dispersion unit at low energy level. Bright field illumination was used for microscopic visualisation of the particles with the light intensity calibrated to 70%. The samples were scanned using the 20× objective lens over a scan area of 4.5 mm by 4.5 mm with a trash size of 10 pixels.

[4] = human, cited from earlier work
Method: This was a randomised, double-blinded, crossover, placebo-controlled clinical study (Fig. 1, Fig. 2, Fig. 3a). Participants were admitted to the Clinical Research Unit (Imperial College Healthcare NHS Trust) and completed five (in healthy men) or two (in healthy women and patients with HA) study visits. […] Study visits in healthy women were conducted in the follicular phase of the menstrual cycle (i.e., days 2–10 inclusive) to contr ... || page 10: Research Governance and Integrity Team Throughout the study there will be at least one physician available 24 hours per day via a direct line, with a second physician on back up, and a secondary direct line to one of the senior physicians. […] Kisspeptin is rapidly cleared (11, 12) and participants would not be anticipated to experience any delayed effects on completion of the study visit. The Chief Investigato ...

[5] = test system: serum LH, FSH, oestradiol and progesterone; assay: Intranasal kisspeptin-54, reproductive hormone profiles in patients with hypothalamic amenorrhoea; assay type: in vivo, human
Method: as §1, §2, §3, §4, §5

[6] = follicular phase, intranasal 12.8 nmol/kg, 4 h sampling, mean ± SEM
[7] = follicular phase, intranasal 12.8 nmol/kg, mean ± SEM
[8] = intranasal 12.8 nmol/kg vs placebo, paired t-test
[9] = intranasal 12.8 nmol/kg, two-way ANOVA, 4 h time profile
[10] = intranasal 12.8 nmol/kg, N = 10 (HA) and N = 12 (healthy women)
[11] = intranasal 12.8 nmol/kg, unpaired t-test, N = 10 (HA) and N = 12 (healthy women)
[12] = patients with HA, intranasal 12.8 nmol/kg vs placebo, paired t-test, N = 10
[13] = patients with HA, intranasal 12.8 nmol/kg, two-way ANOVA, 4 h time profile, N = 10
[14] = patients with hypothalamic amenorrhoea, intranasal 12.8 nmol/kg, 4 h sampling, mean ± SEM, N = 10
[15] = patients with hypothalamic amenorrhoea, intranasal 12.8 nmol/kg, mean ± SEM, N = 10

Substance: Kisspeptin-54
- Forced degradation (HPLC assay specificity) [1]: loss or reduction of the kisspeptin peak
- Effect on LH (LH): robustly increases LH
- AUC of the change in serum FSH [2, 6]: -36.1 ± 23.4 h·IU/L
- AUC of the change in serum LH [2, 6]: 96.0 ± 45.8 h·IU/L
- Maximum increase from baseline in serum FSH [2, 7]: 0.3 ± 0.1 IU/L
- Maximum increase from baseline in serum LH [2, 7]: 1.4 ± 0.3 IU/L
- FSH AUC, mean difference vs placebo [2, 8]: 76.4 h·IU/L
- FSH maximum increase, mean difference vs placebo [2, 8]: 0.4 IU/L
- LH AUC, mean difference vs placebo [2, 8]: 179.8 h·IU/L
- LH maximum increase, mean difference vs placebo [2, 8]: 1.0 IU/L
- Effect on circulating oestradiol and progesterone levels ([2]; intranasal 12.8 nmol/kg, acute 4-h time-course): no significant effects
- Serum FSH over time, mean difference vs placebo [2, 9]: 0.3 IU/L
- Serum LH over time, mean difference vs placebo [2, 9]: 0.7 IU/L
- Particle shape ([3]; Morphologi 4): irregular-shaped particles
- Proportion of particles in the 20–50 μm range ([3]; Morphologi 4): over 40%
- Circular equivalent diameter range of powder particles ([3]; Morphologi 4, N = 55,421 particles): 0.5–113 μm
- Powder particle size range (particles largely within) ([3]; Morphologi 4 static automated imaging): 10–110 μm
- Intravenous half-life ([4]; study protocol (supplement 2)): 28 min
- Circulating half-life [4]: 27.6 min
- Maximal FSH increase, patients with HA relative to healthy women [5, 10]: over 10 fold
- Maximal LH increase, patients with HA relative to healthy women [5, 10]: over 3 fold
- Maximal FSH increase, mean difference patients with HA vs healthy women [5, 11]: 2.77 IU/L
- Maximal LH increase, mean difference patients with HA vs healthy women [5, 11]: 2.95 IU/L
- FSH AUC, mean difference vs placebo [5, 12]: 580.0 h·IU/L
- FSH maximum increase, mean difference vs placebo [5, 12]: 3.1 IU/L
- LH AUC, mean difference vs placebo [5, 12]: 756.9 h·IU/L
- LH maximum increase, mean difference vs placebo [5, 12]: 4.3 IU/L
- Time of maximal stimulation of serum LH post-administration ([5]; patients with HA, intranasal 12.8 nmol/kg, N = 10): 30 to 45 min
- Effect on circulating oestradiol and progesterone levels ([5]; patients with HA, intranasal 12.8 nmol/kg, acute 4-h time-course, N = 10): no significant effects
- Serum FSH over time, mean difference vs placebo [5, 13]: 2.35 IU/L
- Serum LH over time, mean difference vs placebo [5, 13]: 3.0 IU/L
- AUC of the change in serum FSH [5, 14]: 474.9 ± 237.3 h·IU/L
- AUC of the change in serum LH [5, 14]: 600.6 ± 146.7 h·IU/L
- Maximum increase from baseline in serum FSH [5, 15]: 3.1 ± 0.3 IU/L
- Maximum increase from baseline in serum LH [5, 15]: 4.4 ± 0.2 IU/L
